Results: ChEMBL document CHEMBL1147767, “Synthesis and biological evaluation of biphenylsulfonamide carboxylate aggrecanase-1 inhibitors” (Bioorg Med Chem Lett, 2006)
Active and inactive are the calls of the source. No cut-off for these calls is given here.

How the values were obtained:
[1] = molecular target: T1, A disintegrin and metalloproteinase with thrombospondin motifs 4 (Homo sapiens, UniProt O75173)
T1 sequence (O75173 whole entry): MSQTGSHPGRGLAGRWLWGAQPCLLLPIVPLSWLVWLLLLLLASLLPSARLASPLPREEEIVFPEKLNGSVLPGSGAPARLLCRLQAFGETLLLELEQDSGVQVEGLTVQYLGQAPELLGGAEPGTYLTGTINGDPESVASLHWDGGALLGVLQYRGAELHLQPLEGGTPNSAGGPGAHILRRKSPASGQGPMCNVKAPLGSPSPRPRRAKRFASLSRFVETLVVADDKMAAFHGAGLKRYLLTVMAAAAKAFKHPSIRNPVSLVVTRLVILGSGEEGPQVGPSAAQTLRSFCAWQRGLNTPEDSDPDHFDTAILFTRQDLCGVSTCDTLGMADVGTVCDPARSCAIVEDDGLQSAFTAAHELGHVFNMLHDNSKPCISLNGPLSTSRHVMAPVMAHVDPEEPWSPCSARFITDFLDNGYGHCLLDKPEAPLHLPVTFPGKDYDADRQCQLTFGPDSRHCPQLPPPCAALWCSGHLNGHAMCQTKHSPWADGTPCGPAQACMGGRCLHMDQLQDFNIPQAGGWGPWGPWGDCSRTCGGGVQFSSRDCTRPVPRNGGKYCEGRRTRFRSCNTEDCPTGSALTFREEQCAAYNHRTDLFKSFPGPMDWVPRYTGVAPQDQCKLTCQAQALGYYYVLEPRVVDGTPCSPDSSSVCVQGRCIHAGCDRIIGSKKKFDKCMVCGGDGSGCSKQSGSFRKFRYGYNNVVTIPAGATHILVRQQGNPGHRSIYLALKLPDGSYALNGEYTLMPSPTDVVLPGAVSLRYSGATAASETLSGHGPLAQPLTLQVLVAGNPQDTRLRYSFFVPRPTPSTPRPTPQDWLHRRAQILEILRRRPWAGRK

[2] = molecular target: T2, A disintegrin and metalloproteinase with thrombospondin motifs 4 (Homo sapiens) (UniProt O75173); assay: Inhibitory activity against human Aggrecanase 1
T2 sequence (whole entry): T1 sequence (O75173 whole entry)

[3] = molecular target: T3, A disintegrin and metalloproteinase with thrombospondin motifs 4 (Bos taurus) (UniProt Q9TT93); assay: Inhibition of IL1induced proteoglycan degradation in bovine cartilage, 3 day incubation at 10 ug/mL; format: functional
T3 sequence (whole entry): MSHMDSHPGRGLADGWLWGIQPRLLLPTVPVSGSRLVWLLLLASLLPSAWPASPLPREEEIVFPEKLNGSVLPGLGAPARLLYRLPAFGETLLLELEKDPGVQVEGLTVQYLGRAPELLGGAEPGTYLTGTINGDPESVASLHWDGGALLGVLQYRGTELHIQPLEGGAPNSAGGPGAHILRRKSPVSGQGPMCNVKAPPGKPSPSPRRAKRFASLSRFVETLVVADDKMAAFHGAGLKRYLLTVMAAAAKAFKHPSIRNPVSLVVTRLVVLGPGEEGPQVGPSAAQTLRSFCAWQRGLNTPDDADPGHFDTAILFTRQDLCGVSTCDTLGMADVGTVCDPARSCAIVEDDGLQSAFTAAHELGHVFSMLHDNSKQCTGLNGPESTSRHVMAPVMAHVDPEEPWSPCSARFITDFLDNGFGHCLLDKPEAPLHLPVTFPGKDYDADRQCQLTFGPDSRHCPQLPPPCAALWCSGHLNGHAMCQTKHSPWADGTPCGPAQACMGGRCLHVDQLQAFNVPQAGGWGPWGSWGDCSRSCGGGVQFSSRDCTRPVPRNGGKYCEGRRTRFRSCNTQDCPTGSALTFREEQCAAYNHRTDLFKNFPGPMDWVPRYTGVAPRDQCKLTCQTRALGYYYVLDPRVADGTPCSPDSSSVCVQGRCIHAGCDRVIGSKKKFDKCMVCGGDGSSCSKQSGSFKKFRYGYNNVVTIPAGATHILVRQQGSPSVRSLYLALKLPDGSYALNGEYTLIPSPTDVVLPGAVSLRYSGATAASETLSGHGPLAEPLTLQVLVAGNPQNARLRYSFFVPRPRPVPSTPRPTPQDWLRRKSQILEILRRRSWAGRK

[4] = molecular target: T4, Interstitial collagenase (Homo sapiens, UniProt P03956); assay: Inhibitory activity against MMP1
T4 sequence (P03956 whole entry): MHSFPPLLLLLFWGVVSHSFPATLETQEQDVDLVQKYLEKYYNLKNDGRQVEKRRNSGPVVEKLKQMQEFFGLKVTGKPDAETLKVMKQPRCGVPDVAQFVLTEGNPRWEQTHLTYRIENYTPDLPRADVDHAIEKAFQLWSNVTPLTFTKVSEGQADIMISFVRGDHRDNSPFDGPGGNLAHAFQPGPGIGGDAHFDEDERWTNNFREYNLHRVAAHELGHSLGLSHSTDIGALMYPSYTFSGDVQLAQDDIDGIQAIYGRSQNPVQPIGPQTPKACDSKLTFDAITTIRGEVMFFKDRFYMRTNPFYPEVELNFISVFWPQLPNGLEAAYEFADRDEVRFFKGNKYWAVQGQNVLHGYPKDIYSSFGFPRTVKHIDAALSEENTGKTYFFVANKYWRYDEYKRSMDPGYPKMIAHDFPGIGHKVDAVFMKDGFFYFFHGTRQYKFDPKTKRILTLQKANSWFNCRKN

[5] = Cmax in male Sprague-Dawley rats; format: ADME, organism-based; settings: rat, in vivo
[6] = molecular target: Matrix metalloproteinase-14 (Homo sapiens, UniProt P50281); assay: Inhibitory activity against MMP14
[7] = molecular target: Collagenase 3 (Homo sapiens, UniProt P45452)
[8] = Half life in male Sprague-Dawley rats; format: ADME, organism-based; settings: rat, in vivo
[9] = Oral bioavailability in male Sprague-Dawley rats; format: ADME, organism-based; settings: rat, in vivo
[10] = molecular target: 72 kDa type IV collagenase (Homo sapiens, UniProt P08253); assay: Inhibitory activity against MMP2
Chain of 72 kDa type IV collagenase (P08253 whole entry): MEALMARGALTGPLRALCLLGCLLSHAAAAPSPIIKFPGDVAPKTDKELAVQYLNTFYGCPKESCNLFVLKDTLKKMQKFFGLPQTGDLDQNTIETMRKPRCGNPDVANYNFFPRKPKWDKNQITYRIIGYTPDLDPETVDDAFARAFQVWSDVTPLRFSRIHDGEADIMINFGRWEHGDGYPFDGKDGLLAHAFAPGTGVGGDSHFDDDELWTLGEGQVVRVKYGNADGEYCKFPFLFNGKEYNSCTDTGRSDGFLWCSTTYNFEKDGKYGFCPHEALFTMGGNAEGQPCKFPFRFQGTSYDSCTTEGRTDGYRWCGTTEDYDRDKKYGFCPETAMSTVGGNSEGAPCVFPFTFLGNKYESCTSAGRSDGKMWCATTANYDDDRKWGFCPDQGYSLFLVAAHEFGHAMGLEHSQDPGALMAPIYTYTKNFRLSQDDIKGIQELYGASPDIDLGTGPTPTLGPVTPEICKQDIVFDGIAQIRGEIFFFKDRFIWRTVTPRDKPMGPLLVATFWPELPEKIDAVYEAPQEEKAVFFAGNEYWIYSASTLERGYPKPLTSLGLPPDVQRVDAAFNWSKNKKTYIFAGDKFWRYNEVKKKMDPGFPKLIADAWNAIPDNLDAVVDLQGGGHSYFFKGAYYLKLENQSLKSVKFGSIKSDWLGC

[11] = Clearance in male Sprague-Dawley rats; format: ADME, organism-based; settings: rat, in vivo

Row | Compound | IC50 [1] [µM] | further results
1 | O=C(O)CC[C@@H](NS(=O)(=O)c1ccc(-c2ccccc2)cc1)C(=O)O | 1.1 | 
2 | O=C(O)[C@@H](Cc1ccccc1)NS(=O)(=O)c1ccc(-c2ccccc2)cc1 | 4.3 | 
3 | CC(C)[C@@H](NS(=O)(=O)c1cccc(-c2ccccc2)c1)C(=O)O | > 100 | 
4 | CC(C)[C@@H](NS(=O)(=O)c1ccc(-c2ccccc2)c(N)c1)C(=O)O | 30 | 
5 | Cc1c(C(=O)Oc2ccc(-c3ccc(S(=O)(=O)N[C@@H](C(=O)O)C(C)C)cc3)cc2)oc2ccccc12 | 0.086 | 
6 | CC(C)[C@@H](NS(=O)(=O)c1ccc(-c2ccccc2[N+](=O)[O-])cc1)C(=O)O | 50 | 
7 | CC(C)[C@@H](NS(=O)(=O)c1ccc(-c2ccc(OC(=O)c3cc4ccccc4o3)cc2)cc1)C(=O)O | 0.35 | 
8 | CC(C)[C@@H](NS(=O)(=O)c1ccc(-c2ccc(OCc3cc4ccccc4o3)cc2)cc1)C(=O)O | 1.4 | 
9 | CC(C)[C@@H](NS(=O)(=O)c1ccc(-c2ccccc2)cc1)C(=O)O | 3 | 
10 | CC(C)[C@@H](NS(=O)(=O)c1ccc(-c2ccc(CC(=O)c3cc4ccccc4o3)cc2)cc1)C(=O)O | 3.8 | 
11 | CC(C)[C@H](C(=O)O)N(C)S(=O)(=O)c1ccc(-c2ccccc2)cc1 | 1.6 | 
12 | CC(C)[C@@H](NS(=O)(=O)c1ccc(-c2ccccc2O)cc1)C(=O)O | 20 | 
13 | C[C@@H](NS(=O)(=O)c1ccc(-c2ccccc2)cc1)C(=O)O | 5.5 | 
14 | CC(C)[C@H](NS(=O)(=O)c1ccc(-c2ccccc2)cc1)C(=O)O | > 100 | 
15 | CC(C)[C@@H](NS(=O)(=O)c1ccc(-c2ccc(/C=C/c3cc4ccccc4o3)cc2)cc1)C(=O)O | 0.4 | 
16 | CC(C)C(CC(=O)O)NS(=O)(=O)c1ccc(-c2ccccc2)cc1 (stereo unspecified) | 100 | 
17 | CC(C)[C@@H](NS(=O)(=O)c1ccc(-c2ccc(NC(=O)c3cc4ccccc4o3)cc2)cc1)C(=O)O | 7.5 | 
18 | COc1ccc(S(=O)(=O)N(Cc2cccnc2)[C@@H](C(=O)NO)C(C)C)cc1 |  | inhibition ([2]; concentration not given here): 92%
19 | Cc1c(COc2ccc(-c3ccc(S(=O)(=O)N[C@H](Cc4ccccc4)C(=O)O)cc3)cc2)oc2ccccc12 | 0.7 | inhibition [3]: 89%; IC50 [4]: > 100 µM; Cmax [5]: 1360 ng/mL; IC50 [6]: 3 µM; IC50 [7]: 0.0044 µM; half-life [8]: 4.62 h; bioavailability [9]: 35%; IC50 [10]: 0.028 µM; clearance [11]: 16.1 mL/min/kg
20 | O=C(O)[C@@H](Cc1cc2ccccc2[nH]1)NS(=O)(=O)c1ccc(-c2ccccc2)cc1 | 2.8 | 
21 | CC(C)[C@H](C(=O)O)N(Cc1cccnc1)S(=O)(=O)c1ccc(-c2ccccc2)cc1 | 12 | 
22 | COc1ccc(S(=O)(=O)N(Cc2cccnc2)C(C(=O)NO)C(C)C)cc1 (single isomer, unassigned) |  | inhibition [2]: inactive
